US9546158B2, “2,5-substituted pyrimidines” (Grünenthal GmbH, priority 2014, dated 2017)

These compounds were tested against T1, human PDE4B1 (Homo sapiens, UniProt Q07343) (assay: TR-FRET assay using the LANCE Ultra cAMP kit to determine the activity of hPDE4B1). Conditions: test substrate concentration of 10 μM, read-out: Inhibition of PDE4B, Inhibition in %.
T1 construct: host or cells: Sf9 cells
Format: biochemical
Text: TR-FRET Assay Using the LANCE® Ultra cAMP Kit to Determine the Activity of hPDE4B1
The effects of the compounds on the activity of the human PDE4B1 was quantified by measuring the production of 5′AMP from cAMP using a human recombinant enzyme expressed in Sf9 cells and the LANCE® Ultra cAMP kit, a TR-FRET detection method from PerkinElmer. The human PDE4B1 enzyme was purchased from SignalChem Lifesciences (Catalog #P92-31BG, Lot #H296-2).
The test compound, reference compound or water (control) was mixed with the enzyme (0.96 U) in a reaction buffer containing 50 mM Tris-HCl, 50 mM MgCl2 and 5 mM DTT (pH 8.5). Thereafter, the reaction was initiated by addition of 500 nM cAMP (substrate) and the mixture was incubated for 30 minutes at room temperature. For control basal measurements, the enzyme was omitted from the reaction mixture. After 30 minutes, the reaction was stopped and diluted by a factor of 100 with the reaction buffer supplemented with 500 μM IBMX. The fluorescence donor (europium chelate-labeled cAMP) and the fluorescence acceptor (anti-cAMP antibody labeled with the ULight™ dye) were then added together with 500 μM IBMX to a 10 μl aliquot. After 60 minutes, the fluorescence transfer corresponding to the amount of residual cAMP was measured at λex=337 nm, λem=620 nm and λem=665 nm using a microplate reader (PHERAstar, BMG). The enzyme activity was determined by dividing the signal measured at 665 nm by that measured at 620 nm (ratio) multiplied by 10000. The results were expressed as percent inhibition of the control enzyme activity. IC50 values (IC50=concentration causing a half-maximal inhibition of control specific activity) were derived from dose response measurements with ten different concentrations (n=3; N=1-3).

T1 sequence (Q07343 whole entry): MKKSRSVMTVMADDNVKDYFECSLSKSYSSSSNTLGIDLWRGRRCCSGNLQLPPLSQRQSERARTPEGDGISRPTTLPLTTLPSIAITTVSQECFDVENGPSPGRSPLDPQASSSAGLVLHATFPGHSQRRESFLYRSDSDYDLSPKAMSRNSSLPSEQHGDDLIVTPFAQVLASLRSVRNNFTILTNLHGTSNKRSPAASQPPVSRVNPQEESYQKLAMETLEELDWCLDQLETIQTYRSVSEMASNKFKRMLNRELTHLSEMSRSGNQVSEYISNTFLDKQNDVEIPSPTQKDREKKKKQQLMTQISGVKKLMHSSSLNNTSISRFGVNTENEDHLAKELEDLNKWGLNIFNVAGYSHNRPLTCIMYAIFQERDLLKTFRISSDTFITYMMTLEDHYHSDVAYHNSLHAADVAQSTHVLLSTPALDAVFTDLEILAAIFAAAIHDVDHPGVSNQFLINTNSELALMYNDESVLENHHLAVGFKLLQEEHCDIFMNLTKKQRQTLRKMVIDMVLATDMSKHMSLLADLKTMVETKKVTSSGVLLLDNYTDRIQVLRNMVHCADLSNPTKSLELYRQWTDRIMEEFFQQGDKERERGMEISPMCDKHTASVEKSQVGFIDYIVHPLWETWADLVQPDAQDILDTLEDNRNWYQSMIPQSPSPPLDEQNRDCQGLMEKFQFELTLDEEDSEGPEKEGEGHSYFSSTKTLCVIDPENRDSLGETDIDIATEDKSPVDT

| SMILES | inhibition at 10 µM [%] |
| --- | --- |
| Cc1ccc(F)c(-c2cnc(-n3nc(C(C)O)c4ccc(C(=O)N(C)CCO)cc43)nc2)c1 (stereo not drawn) [Compound No. 66, 1-(5-(2-Fluoro-5-methylphenyl)pyrimidin-2-yl)-3-(1-hydroxyethyl)-N-(2-hydroxyethyl)-N-methyl-1H-indazole-6-carboxamide] | 105 |
| CCc1ccc(F)c(-c2cnc(-n3nc(C(C)O)c4ccc(C(=O)N5CCOCC5)cc43)nc2)c1 (stereo not drawn) [Compound No. 69, (1-(5-(5-Ethyl-2-fluorophenyl)pyrimidin-2-yl)-3-(1-hydroxyethyl)-1H-indazol-6-yl)(morpholino)methanone] | 77 |
| Cc1ccc(F)c(-c2cnc(-n3nc([S+](C)[O-])c4ccc(C(=O)N5CCOCC5)cc43)nc2)c1 (stereo not drawn) [Compound No. 32, (1-(5-(2-Fluoro-5-methylphenyl)pyrimidin-2-yl)-3-(methylsulfinyl)-1H-indazol-6-yl)(morpholino)methanone] | 96 |
| CC(O)c1nn(-c2ncc(-c3cccc(C4CC4)c3)cn2)c2cc(C(=O)N3CCOCC3)ccc12 (stereo not drawn) [Compound No. 76, (1-(5-(3-Cyclopropylphenyl)pyrimidin-2-yl)-3-(1-hydroxyethyl)-1H-indazol-6-yl)(morpholino)methanone] | 102 |
| Cc1ccc(F)c(-c2cnc(-n3nc(C(C)O)c4ccc(C(=O)N(C)CC(N)=O)cc43)nc2)c1 (stereo not drawn) [Compound No. 67, N-(2-Amino-2-oxoethyl)-1-(5-(2-fluoro-5-methylphenyl)pyrimidin-2-yl)-3-(1-hydroxyethyl)-N-methyl-1H-indazole-6-carboxamide] | 90 |
| Cc1ccc(F)c(-c2cnc(-n3nc(C(C)O)c4ccc(C(=O)N5CCOCC5)cc43)nc2)c1 (stereo not drawn) [Compound No. 34, (1-(5-(2-Fluoro-5-methylphenyl)pyrimidin-2-yl)-3-(1-hydroxyethyl)-1H-indazol-6-yl)(morpholino)methanone] | 107 |
| Cc1ccc(F)c(-c2cnc(-n3nc(S(C)(=O)=O)c4ccc(C(=O)N5CCOCC5)cc43)nc2)c1 [Compound No. 33, (1-(5-(2-Fluoro-5-methylphenyl)pyrimidin-2-yl)-3-(methylsulfonyl)-1H-indazol-6-yl)(morpholino)methanone] | 102 |
| COc1ccnc(-c2cnc(-n3nc(C(C)O)c4ccc(C(=O)N5CCOCC5)cc43)nc2)c1 (stereo not drawn) [Compound No. 71, (3-(1-Hydroxyethyl)-1-(5-(4-methoxypyridin-2-yl)pyrimidin-2-yl)-1H-indazol-6-yl)(morpholino)methanone] | 108 |
| Cc1ccnc(-c2cnc(-n3nc(C(C)O)c4ccc(C(=O)N5CCOCC5)cc43)nc2)c1 (stereo not drawn) [Compound No. 70] | 105 |
| Cc1ccc(F)c(-c2cnc(-n3nc([S+](C)[O-])c4ccc(C(=O)N5CCOCC5)cc43)nc2)c1 (single isomer, unassigned) [Compound No. 65, (1-(5-(2-Fluoro-5-methylphenyl)pyrimidin-2-yl)-3-(methylsulfinyl)-1H-indazol-6-yl)(morpholino)methanone] | 100 |
| CCOc1ccc(F)c(-c2cnc(-n3nc(C(C)O)c4ccc(C(=O)N5CCOCC5)cc43)nc2)c1 (stereo not drawn) [Compound No. 74, (1-(5-(5-Ethoxy-2-fluorophenyl)pyrimidin-2-yl)-3-(1-hydroxyethyl)-1H-indazol-6-yl)(morpholino)methanone] | 102 |
| CC(O)c1nn(-c2ncc(-c3cc(C4CC4)ccn3)cn2)c2cc(C(=O)N3CCOCC3)ccc12 (stereo not drawn) [Compound No. 73, (1-(5-(4-Cyclopropylpyridin-2-yl)pyrimidin-2-yl)-3-(1-hydroxyethyl)-1H-indazol-6-yl)(morpholino)methanone] | 105 |
